Results reported in patent US20220340983A1, “SYSTEMS AND ASSAYS FOR IDENTIFYING PU.1 INHIBITORS” (Massachustts Institute of Technology, priority 2019, published 2022).

System: iPS and ES-microglia
Assay: Average cell size (Vybrant DiI-positive surface area per Hoechst-positive cell) in microglia
Format: cell-based, human
Conditions: A11 alone ≤20 nM
Procedure: Top row: Effect of a 2-day treatment with DPBS (10 μL/mL), IFNγ (25 ng/mL), TNFα (25 ng/mL), TGFβ (25 ng/mL), IL1β (25 ng/mL), LPS (25 ng/mL), ATP (100 nM), CD200 (100 ng/mL), IFNα (25 ng/mL), IL12 (5 ng/mL), CX3CL1 (100 ng/mL), CCL5 (100 ng/mL), PMA (10 ng/mL), IFNβ (10 ng/mL), IL33 (10 ng/mL), and IL4 (100 ng/mL). n=52 for DPBS, n=9 for all other inflammatory molecules, except IL33 where n=3. Bottom row: effect after co-application with A11 (20 nM). Scale bar 10 μm. […] Student's unpaired, two sided t-test, ****P≤0.0001, ***P≤0.001, **P≤0.01, *P≤0.05. […] Top row: An increase in number of cells per well with ≥2 BODIPY-positive structures was observed after a 2-day treatment with IFNγ (25 ng/mL), TNFα (25 ng/mL) and IL33 (10 ng/mL) as compared to DPBS treatment. […] Student's unpaired, two-sided t-test, ***P≤0.001, **P≤0.01, *P≤0.05. […] A 2-day treatment with IFNγ (25 ng/mL) caused increase in ATP levels that was reversed by A11 (20 nM) treatment in iPS (left panel) and ES-microglia (right panel). Student's unpaired, twosided t-test, **P≤0.01. […]
FIGS. 17A-17H show results from comparing the effects of multiple inflammatory molecules in iPS-microglia. […] Quantification based on total Vybrant DiI-positive surface area divided by number of Hoechst positive cells per field of view. […]

## O=S(=O)(NCc1ccncc1)c1ccc(C2CCCCC2)cc1 [Compound A11]
  average cell size versus DPBS treatment: no effects
